Patent publication US6497898B1, “Surfactant, and an emulsion-type cosmetic composition and a lipsome containing said surfactant” (Kanebo LTD, priority 1993, dated 2002)

tested on: skin; test: Safety test: skin irritation patch test of the surfactants; type: in vivo; settings: Sample (solution) per table head; patch on 20 subjects for 24 hours, evaluated 24 hours after removing; clear erythema = positive
Experimental: As a safety test on the above trehalose-6-fatty acid esters, irritation to skin was examinaed in accordance with the following procedures.
[…] Irritaion was evaluated 24 hours after removing the patch. […] Sodium laurylphosphate used as a control is a surfactant which is usually used in shampoos, body shampoos and the like.

SMILES | Irritation to skin, positive, % [%]
CCCCCCCCCCCCCCCCCC(=O)OC[C@H]1O[C@H](O[C@H]2O[C@H](CO)[C@@H](O)[C@H](O)[C@H]2O)[C@H](O)[C@@H](O)[C@@H]1O [6-Stearoyl-trehalose, 6-stearoyl-trehalose] | 0
CCCCCCCCCCCC(=O)OCC1OC(OC2OC(CO)C(O)C(O)C2O)C(O)C(O)C1O (stereo not shown) [6-Lauroyl-trehalose, 6-lauroyl-trehalose] | 0
CCCCCCCCCCCCOP(=O)([O-])O.[Na+] [Monosodium lauryl phosphate, reference compound] | 0.5
C=CCCCCCCCCC(=O)OCC1OC(OC2OC(CO)C(O)C(O)C2O)C(O)C(O)C1O (stereo not shown) [6-(10-Undecylenyl)-trehalose, 6-(10-undecylenyl)-trehalose] | 0
